Reference: the supplement of paper PMC10307832

Assays:
Test in all cases: relative viability (nuclei count vs DMSO), 5 days (fraction); higher = more cells survive
Vemurafenib + Linsitinib = compound: CCCS(=O)(=O)Nc1ccc(F)c(C(=O)c2c[nH]c3ncc(-c4ccc(Cl)cc4)cc23)c1F [Vemurafenib] + C[C@]1(O)C[C@@H](c2nc(-c3ccc4ccc(-c5ccccc5)nc4c3)c3c(N)nccn32)C1 [Linsitinib] (partner 1 µM)
Procedure, shortened: (§1)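 Lung cancer cell lines were seeded in 1536-well plates and dosed by pin tool the next day, with either a single drug or a fixed anchor-drug dose combined with five library-drug doses (not always all listed) spaced in √10 steps. Five days later, one step fixed the cells and stained their nuclei (final 0.05% Triton X-100, 1% formaldehyde, 1 ug/ml Hoechst), and nuclei were counted on 4× images. Relative viability is the nuclei count in treated wells divided by the count in vehicle wells, and each value is the median of duplicate plates.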

Vemurafenib + Alpelisib = compound: CCCS(=O)(=O)Nc1ccc(F)c(C(=O)c2c[nH]c3ncc(-c4ccc(Cl)cc4)cc23)c1F [Vemurafenib] + Cc1nc(NC(=O)N2CCC[C@H]2C(N)=O)sc1-c1ccnc(C(C)(C)C(F)(F)F)c1 [Alpelisib] (partner 2 µM)
Procedure, shortened: as §1

OSI-027 + Dasatinib = compound: COc1cccc2cc(-c3nc([C@H]4CC[C@H](C(=O)O)CC4)n4ncnc(N)c34)[nH]c12 [OSI-027] + Cc1nc(Nc2ncc(C(=O)Nc3c(C)cccc3Cl)s2)cc(N2CCN(CCO)CC2)n1 [Dasatinib] (partner 0.075 µM)
Procedure, shortened: as §1

Alpelisib + Crizotinib = compound: Cc1nc(NC(=O)N2CCC[C@H]2C(N)=O)sc1-c1ccnc(C(C)(C)C(F)(F)F)c1 [Alpelisib] + C[C@@H](Oc1cc(-c2cnn(C3CCNCC3)c2)cnc1N)c1c(Cl)ccc(F)c1Cl [Crizotinib] (partner 1 µM)
Procedure, shortened: as §1

Cell Line: UMC-11
- relative viability (Vemurafenib + Linsitinib; first compound 0.03162 µM): 0.945
- relative viability (Vemurafenib + Linsitinib; first compound 0.1 µM): 0.989
- relative viability (Vemurafenib + Linsitinib; first compound 0.3162 µM): 1.06
- relative viability (Vemurafenib + Linsitinib; first compound 1 µM): 0.949
- relative viability (Vemurafenib + Alpelisib; first compound 0.03162 µM): 0.954
- relative viability (Vemurafenib + Alpelisib; first compound 0.1 µM): 0.947
- relative viability (Vemurafenib + Alpelisib; first compound 0.3162 µM): 1.09
- relative viability (Vemurafenib + Alpelisib; first compound 1 µM): 0.91
- relative viability (OSI-027 + Dasatinib; first compound 0.01 µM): 0.537
- relative viability (OSI-027 + Dasatinib; first compound 0.03162 µM): 0.457
- relative viability (OSI-027 + Dasatinib; first compound 0.1 µM): 0.404
- relative viability (OSI-027 + Dasatinib; first compound 0.3162 µM): 0.434
- relative viability (OSI-027 + Dasatinib; first compound 1 µM): 0.299
- relative viability (Alpelisib + Crizotinib; first compound 0.04 µM): 0.589
- relative viability (Alpelisib + Crizotinib; first compound 0.1265 µM): 0.516
- relative viability (Alpelisib + Crizotinib; first compound 0.4 µM): 0.724
- relative viability (Alpelisib + Crizotinib; first compound 1.265 µM): 0.688
- relative viability (Alpelisib + Crizotinib; first compound 4 µM): 0.536
